This passage reports mortality results from patent publication US9549560B2, “Pesticidal compositions and related methods” (DOW AGROSCIENCES LLC, priority 2013, dated 2017).

For assay [1], the system named is Green Peach Aphid (Myzus persicae). The experiment in a line: Bioassay for Green Peach Aphid (GPA) (MYZUPE), foliar spray on cabbage seedlings. Format: in vivo. To be noted: 72 h, 200 ppm foliar spray, graded after three days, Abbott corrected % control, read-out: % Control (or Mortality) rating, GPA. How it is done:
Cabbage seedlings grown in 3-inch pots, with 2-3 small (3-5 cm) true leaves, were used as test substrate. The seedlings were infested with 20-50 GPA (wingless adult and nymph stages) one day prior to chemical application. Four pots with individual seedlings were used for each treatment. Test compounds (2 mg) were dissolved in 2 mL of acetone/methanol (1:1) solvent, forming stock solutions of 1000 ppm test compound. The stock solutions were diluted 5× with 0.025% Tween 20 in H2O to obtain the solution at 200 ppm test compound. A hand-held aspirator-type sprayer was used for spraying a solution to both sides of […] leaves until runoff. Reference plants (solvent check) were sprayed with the diluent only containing 20% by volume of acetone/methanol (1:1) solvent. Treated plants were held in a holding room for three days at approximately 25° C. and ambient relative humidity (RH) prior to grading. Evaluation was conducted by counting the number of live aphids per plant under a microscope. Percent control was measured by using Abbott's correction formula (W. S. Abbott, “A Method of Computing the Effectiveness of an Insecticide,” J. Econ. Entomol. 18 (1925), pp. 265-267) as follows. Corrected % Control=100*(X−Y)/X
X=No. of live aphids on solvent check plants and
Y=No. of live aphids on treated plants
(§1) Biological Data for Green Peach Aphid (GPA) (MYZUPE) and Sweetpotato Whitefly-crawler (WF) (BEMITA)” (See Table Section).

The subject of assay [2] is Sweetpotato Whitefly-Crawler (Bemisia tabaci). The experiment in a line: Insecticidal test for Sweetpotato Whitefly-Crawler (WF) (BEMITA) in foliar spray assay on cotton plants. Particulars: 216 h, 200 ppm foliar spray, graded after 9 days, Abbott corrected % control, read-out: % Control (or Mortality) rating, WF. It is filed as in vivo. How it is done:
Cotton plants (Gossypium hirsutum) grown in 3-inch pots, with 1 small (4-5 cm) true leaves, were used as test substrate. The plants were infested with 200-400 whitefly eggs 4-5 days prior to chemical application. Four pots with individual plants were used for each treatment. Test compounds (2 mg) were dissolved in 1 mL of acetone solvent, forming stock solutions of 2000 ppm test compound. The stock solutions were diluted 10× with 0.025% Tween 20 in H2O (diluents) to obtain the solution at 200 ppm test compound. A hand-held aspirator-type sprayer was used for spraying a solution to both sides of cotton leaves until runoff. Reference plants (solvent check) were sprayed with the diluent only containing 10% by volume of acetone solvent. Treated plants were held in a holding room for 9 days at approximately 25° C. and ambient relative humidity (RH) prior to grading. Evaluation was conducted by counting the number of live 3-4 nymph stage per plant under a microscope. Percent control was measured by using Abbott's correction formula (W. S. Abbott, “A Method of Computing the Effectiveness of an Insecticide,” J. Econ. Entomol. 18 (1925), pp. 265-267) as follows. Corrected % Control=100*(X−Y)/X
X=No. of live nymphs on solvent check plants and
Y=No. of live nymphs on treated plants.
as §1

Consider `CCN(C(=O)CCSCCCC(F)(F)F)c1cn(-c2ccc[n+]([O-])c2)nc1Cl` [Compound P53, 3-(3-Chloro-4-(N-ethyl-3-((4,4,4-trifluorobutyl)thio)propanamido)-1H-pyrazol-1-yl)pyridine 1-oxide], for which the mortality at 200 ppm in assay [1] and in assay [2] was 80 to 100% in each case.
For `C#CCN(C(=O)CCSCCCC(F)(F)F)c1cn(-c2ccc[n+]([O-])c2)nc1Cl` [Compound P71, 3-(3-Chloro-4-(N-(prop-2-yn-1-yl)-3-((4,4,4-trifluorobutyl)thio)propanamido)-1H-pyrazol-1-yl)pyridine 1-oxide], the mortality at 200 ppm in assay [1] and in assay [2] was 80 to 100% in each case.
As to `C#CCN(C(=O)CCSCC1CC1(F)F)c1cn(-c2ccc[n+]([O-])c2)nc1Cl` (stereo not drawn) [Compound P65, 3-(3-Chloro-4-(3-(((2,2-difluorocyclopropyl)methyl)thio)-N-(prop-2-yn-1-yl)propanamido)-1H-pyrazol-1-yl)pyridine 1-oxide], the mortality at 200 ppm in assay [1] and in assay [2] was 80 to 100% each time.
As to `CCN(C(=O)CC[S+]([O-])CCC(F)(F)F)c1cn(-c2cc(F)c[n+]([O-])c2)nc1Cl` (stereo not drawn) [Compound P37, 3-(3-Chloro-4-(N-ethyl-3-((3,3,3-trilluoropropyl)sulfinyl)propanamido)-1H-pyrazol-1-yl)-5-fluoropyridine 1-oxide], the mortality at 200 ppm in assay [1] and in assay [2] was 80 to 100% throughout.
As for `CN(C(=O)CC[S+]([O-])CC1CC1(F)F)c1cn(-c2ccc[n+]([O-])c2)nc1Cl` (stereo not drawn) [Compound P57, 3-(3-Chloro-4-(3-(((2,2-difluorocyclopropyl)methyl)sulfinyl)-N-methylpropanamido)-1H-pyrazol-1-yl)pyridine 1-oxide], the mortality at 200 ppm in assay [1] and in assay [2] was 80 to 100% each time.
Regarding `CCN(C(=O)CC[S+](C)[O-])c1cn(-c2ccc[n+]([O-])c2)nc1Cl` (stereo not drawn) [Compound F9, 3-(3-Chloro-4-(N-ethyl-3-(methylsulfinyl)propanamido)-1H-pyrazol-1-yl) pyridine 1-oxide], the mortality at 200 ppm in assay [1] and in assay [2] was 80 to 100% in each case.
For the compound `CCN(C(=O)CCSCCC(F)(F)F)c1cn(-c2ccc[n+]([O-])c2)nc1C` [Compound P18, 3-(4-(N-Ethyl-3-((3,3,3-trilluoropropyl)thio)propanamido)-3-methyl-1H-pyrazol-1-yl)pyridine 1-oxide], the mortality at 200 ppm in assay [1] and in assay [2] was 80 to 100% in each case.
Consider `CCN(C(=O)C(C)CSCCC(F)(F)F)c1cn(-c2ccc[n+]([O-])c2)nc1C` (stereo not drawn) [FA1, 3-(4-(N-Ethyl-2-methyl-3-((3,3,3-trilluoropropyl)thio)propanamido)-3-methyl-1H-pyrazol-1-yl)pyridine 1-oxide], for which the mortality at 200 ppm in assay [1] and in assay [2] was 80 to 100% in each case.
As to `CCN(C(=O)CCS(=O)(=O)CCC(F)(F)F)c1cn(-c2ccc[n+]([O-])c2)nc1Cl` [Compound F13, 3-(3-chloro-4-(N-ethyl-3-((3,3,3-trifluoropropyl)sulfonyl)propanamido)-1H-pyrazol-1-yl)pyridine 1-oxide], the mortality at 200 ppm in assay [1] and in assay [2] was 80 to 100% each time.
On to `CCN(C(=O)CC[S+]([O-])CCCC(F)(F)F)c1cn(-c2ccc[n+]([O-])c2)nc1Cl` (stereo not drawn) [Compound P54, 3-(3-Chloro-4-(N-ethyl-3-((4,4,4-trilluorobutyl)sulfinyl)propanamido)-1H-pyrazol-1-yl)pyridine 1-oxide], for which the mortality at 200 ppm in assay [1] and in assay [2] was 80 to 100% throughout.
On to `CC(C(=O)N(C)c1cn(-c2ccc[n+]([O-])c2)nc1Cl)S(C)(=O)=O` (stereo not drawn) [FA12, 3-(3-chloro-4-(N-methyl-2-(methylsulfonyl)propanamido)-1H-pyrazol-1-yl)pyridine 1-oxide], for which the mortality at 200 ppm in assay [1] and in assay [2] was 80 to 100% each time.
In the case of `CCN(C(=O)CC[S+]([O-])CC1CC1(F)F)c1cn(-c2ccc[n+]([O-])c2)nc1C` (stereo not drawn) [Compound P75, 3-(4-(3-(((2,2-Difluorocyclopropyl)methyl)sulfinyl)-N-ethylpropan-amido)-3-methyl-1H-pyrazol-1-yl)pyridine 1-oxide], the mortality at 200 ppm in assay [1] and in assay [2] was 80 to 100% in each case.
In the case of `C#CCN(C(=O)C(C)C[S+]([O-])CCC(F)(F)F)c1cn(-c2ccc[n+]([O-])c2)nc1Cl` (stereo not drawn) [FA7, 3-(3-Chloro-4-(2-methyl-N-(prop-2-yn-1-yl)-3-((3,3,3-trifluoropropyl)sulfinyl)propanamido)-1H-pyrazol-1-yl)pyridine 1-oxide], the mortality at 200 ppm in assay [1] and in assay [2] was 80 to 100% each time.
Regarding `CCN(C(=O)CCSCCCC(F)(F)F)c1cn(-c2ccc[n+]([O-])c2)nc1C` [Compound P80, 3-(4-(N-Ethyl-3-((4,4,4-trifluorobutyl)thio)propanamido)-3-methyl-1H-pyrazol-1-yl)pyridine 1-oxide], the mortality at 200 ppm in assay [1] and in assay [2] was 80 to 100% each time.
Take `C#CCN(C(=O)C(C)CSCCC(F)(F)F)c1cn(-c2ccc[n+]([O-])c2)nc1Cl` (stereo not drawn) [FA4, 3-(3-Chloro-4-(2-methyl-N-(prop-2-yn-1-yl)-3-((3,3,3trifluoropropyl)thio)propanamido)-1H-pyrazol-1-yl)pyridine 1-oxide]: the mortality at 200 ppm in assay [1] and in assay [2] was 80 to 100% in each case.
Turning to `CCN(C(=O)CS(C)(=O)=O)c1cn(-c2ccc[n+]([O-])c2)nc1Cl` [FA11, 3-(3-chloro-4-(N-ethyl-2-(methylsulfonyl)acetamido)-1H-pyrazol-1-yl)pyridine 1-oxide], the mortality (in general, the percentage killed) at 200 ppm in assay [1] fell in the range of 80 to 100%; in assay [2], 0 to 80%.
With `CCN(C(=O)C(C)C[S+]([O-])CCC(F)(F)F)c1cn(-c2ccc[n+]([O-])c2)nc1C` (stereo not drawn) [FA10, 3-(4-(N-Ethyl-2-methyl-3-((3,3,3-trifluoropropyl)sulfinyl)propanamido)-3-methyl-1H-pyrazol-1-yl)pyridine 1-oxide], the figures for the mortality at 200 ppm in assay [1] and in assay [2] were 80 to 100% and 0 to 80%, respectively.
The matching figures for `CCN(C(=O)CCSC)c1cn(-c2ccc[n+]([O-])c2)nc1Cl` [Compound F2, 3-(3-Chloro-4-(N-ethyl-3-(methylthio)propanamido)-1H-pyrazol-1-yl) pyridine 1-oxide]: 80 to 100% and 80 to 100%.
The matching figures for `CCN(C(=O)CCSCCC(F)(F)F)c1cn(-c2cc(F)c[n+]([O-])c2)nc1Cl` [Compound P36, 3-(3-Chloro-4-(N-ethyl-3-((3,3,3-trilluoropropyl)thio)propanamido)-1H-pyrazol-1-yl)-5-fluoropyridine 1-oxide]: 80 to 100% and 80 to 100%.
The matching figures for `CN(C(=O)CCSCC1CC1(F)F)c1cn(-c2ccc[n+]([O-])c2)nc1Cl` (stereo not drawn) [Compound P56, 3-(3-Chloro-4-(3-(((2,2-difluorocyclopropyl)methyl)thio)-N-methylpropanamido)-1H-pyrazol-1-yl)pyridine 1-oxide]: 80 to 100% and 80 to 100%.
For the compound `CN(C(=O)CCSCCC(F)(F)F)c1cn(-c2ccc[n+]([O-])c2)nc1Cl` [Compound P1, 3-(3-chloro-4-(N-methyl-3-((3,3,3-trifluoropropyl)thio)propanamido)-1H-pyrazol-1-yl)pyridine 1-oxide], the mortality at 200 ppm in assay [1] and in assay [2] was 80 to 100% each time.
